Data set [1] in a line: Solubility of the active in water and organic solvents (statement). It is filed as physicochemical. The source says: However, such organic solvents are unsuitable for use in topical formulations for treatment of skin disease.
Data set [2] is described as follows: Initial formulation attempts with common solvents and excipients: crystal formation upon storage. It is filed as physicochemical. Particulars: common pharmaceutically acceptable solvents and excipients. The source says:
Accordingly, further development was needed to arrive at a stable topical formulation where crystal formation of 6-ethoxy-7-methoxy-2-(2-methylsulfanylphenyl)-3,1-benzoxazin-4-one can be avoided.

Turning to `CCOc1cc2c(=O)oc(-c3ccccc3SC)nc2cc1OC` [6-Ethoxy-7-methoxy-2-(2-methylsulfanylphenyl)-3,1-benzoxazin-4-one], the “Solubility in organic solvents” value in data set [1] (various organic solvents) is “can be dissolved in various organic solvents”. In data set [1] (water), the Solubility in water entry is “low solubility in water”. In addition, the “Crystal formation upon storage of the formulation” value in data set [2] is listed as “form needle shaped crystals upon storage of the formulation”.

For the origin of these results see patent US20240180915A1, “OIL-IN-WATER EMULSION OF 6-ETHOXY-7-METHOXY-2-(2-[…])-3,L-BENZOXAZIN-4-ONE” (SIXERA PHARMA AB, priority 2021, published 2024).
